Measurements published in patent publication US20160077081A1, “METHOD FOR A CELL-BASED DRUG SCREENING ASSAY AND THE USE THEREOF” (QGEL SA, priority 2013, published 2016).

Legend:
[1] = test system: Colon cancer HCT 116 cells; test: Image-based analysis of cancer cell spheroid size in a three-dimensional matrix after early-/late-stage treatment; conditions: early-stage treatment, IC50 and 1 mM
Protocol: In FIG. 3B an image-based analysis quantifying the distribution of diameter sizes of cell colonies, specifically cancer spheroids measured immediately after “early-” and “late-stage” treatment is shown as an example of a selection of drugs from FIG. 3 A at a drug concentration of 10 μM. Filled curves correspond to “hits” and unfilled curves are “no Hits” as determined using metabolic readouts at the ends of “early stage” and “late-stage” (Positive control: Cells treated with copper sulphate; negative control; Cells treated with DMSO).
In FIG. 4 the determination of the half maximal inhibitory concentration (IC50) as an Alamar Blue® readout of selected “Hits” in FIG. 2, example 5-Fluorouracil (5-FU), on colonies of Colon cancer HCT 116 cells is shown. The readout was performed immediately after “early-” and “late-stage” treatments of cells in a three-dimensional matrix. […] The IC50 curves obtained with two-dimensional reference assays are often similar to “early-stage” treatment conditions of the present invention (three-dimensional). This is also shown in the drug screening correlation of most “Hits” observed with the two assay methods in FIG. 3 A (upper panel). In FIG. 4 B an image-based analysis of cancer cell spheroids grown in a three-dimensional matrix after “early-” and “late-stage” treatment at selected drug concentrations, IC50 and 1 mM, are shown.

[2] = test system: Colon cancer HCT 116 cells; test: Alamar Blue metabolic readout on colonies of HCT 116 cells in a three-dimensional matrix, early-/late-stage treatment schedule; assay type: cell-based; conditions: for Hit in drug screening (metabolic readout, Alamar Blue): 10 μM
Protocol: An example is given comprising an “early-” and a “late-stage” drug treatment for cells grown in three-dimensional matrices. Conditions of different cancer stages are identified, derived from profiling assays, as in FIG. 1, and schedules for drug screening are determined accordingly. Here, different cancer stages for cells cultured in three-dimensional matrices are determined as “early-” and “late-stage” cancer treatment.
The “early-stage” comprises two time points for readout. The first point of time at day seven is at the end of the drug treatment, whereas the second point in time at day eleven follows a drug-free recovery phase. The “late-stage” comprises two time points for readout. The first point in time at day seventeen is at the end of a second (independent from “early-stage”) drug treatment phase. The second point in time at day twenty-one follows a drug-free recovery phase. Measurements at additional points in time can be performed before the start of treatment and/or after different drug-free recovery phases.
In contrary, the “late-stage” illustrates existence of larger spheroids with a diameter of 155 μm, low cell proliferation (shown in FIG. 9), and presence of hypoxic condition (FIG. 1C). In both cases, the readouts are performed immediately after treatment end to test immediate drug efficacy, and after a four-day drug-free period to test recurrence of “mini-tumour” growth and/or retarded drug effects as the case observed with Gemcitabine (FIG. 10).
As an example for “Hit” generation a selection of drugs from a commercially available drug library (Prestwick) is used. In A) the effect of sixty drugs on cancer cells measured by metabolic readout (Alamar Blue®) is shown. […]
In FIG. 4 the determination of the half maximal inhibitory concentration (IC50) as an Alamar Blue® readout of selected “Hits” in FIG. 2, example 5-Fluorouracil (5-FU), on colonies of Colon cancer HCT 116 cells is shown. The readout was performed immediately after “early-” and “late-stage” treatments of cells in a three-dimensional matrix. […]

[3] = test system: Pancreatic Panc-1 cancer cells; test: Two-dimensional reference assay on pancreatic cancer cells; assay type: cell-based
Protocol: For reference two-dimensional assays, cells are normally tested with drugs within the logarithmic proliferations phase between day one to four (FIG. 9). […] The dose-dependant efficacy profiles for “late-stage” treatment with Gemcitabine on pancreatic cancer cells culture in three-dimensional matrices were measured according to Alamar Blue® readout before and after the drug-free recovery period of four to seven, days.

[4] = test system: Pancreatic Panc-1 cancer cells; test: Alamar Blue readout on Panc-1 cells in three-dimensional matrices, late-stage treatment with or without drug-free recovery; assay type: cell-based
Excerpt: The “early-stage” comprises two time points for readout. The first point of time at day seven is at the end of the drug treatment, whereas the second point in time at day eleven follows a drug-free recovery phase. The “late-stage” comprises two time points for readout. The first point in time at day seventeen is at the end of a second (independent from “early-stage”) drug treatment phase. The second point in time at day twenty-one follows a drug-free recovery phase. Measurements at additional points in time can be performed before the start of treatment and/or after different drug-free recovery phases. […] The dose-dependant efficacy profiles for “late-stage” treatment with Gemcitabine on pancreatic cancer cells culture in three-dimensional matrices were measured according to Alamar Blue® readout before and after the drug-free recovery period of four to seven, days.

| SMILES | Inhibition of spheroid growth [1] | Hit in drug screening (metabolic readout, Alamar Blue) ([2]; triplicate, selected Hit of the screening campaign, stage not stated) | Hit in drug screening (metabolic readout, Alamar Blue) ([2]; late-stage treatment, three-dimensional matrix) | Potency (IC50 shift) from early to late treatment ([2]; late-stage versus early-stage treatment, readout immediately after treatment, three-dimensional matrix) | Activity (dose-dependent efficacy) [3] | Cell growth inhibition (dose-dependent efficacy, Alamar Blue) ([4]; measured after drug-free recovery period of four to seven days) | Activity (dose-dependent efficacy, Alamar Blue) ([4]; measured immediately after the treatment) |
| --- | --- | --- | --- | --- | --- | --- | --- |
| O=c1[nH]cc(F)c(=O)[nH]1 [5-FU, 5-Fluorouracil] | strong inhibition | Hits | no Hit | less potent | – | – | – |
| Nc1ccn([C@@H]2O[C@H](CO)[C@@H](O)C2(F)F)c(=O)n1 [Gemcitabine] | – | – | – | – | not shown to be active | potent cell growth inhibitor | not shown to be active |
